Experimental data reported in article PMC11203266, “Continuous evolution of compact protein degradation tags regulated by selective molecular glues” (Science (New York, N.Y.), 2024).
pEC50, pKd: −log10 of the molar value. Entries after “also recorded” stand apart in the source; their conditions may differ.

Columns and labels:
degron-tagged eGFP = assay: Degron-tagged eGFP degradation by flow cytometry in HEK293T cells; type: cell-based, human
DDB1•CRBN = target: T1, DDB1•CRBN (Homo sapiens, UniProt Q96SW2); assay: Competitive fluorescence anisotropy (polarization) vs thalidomide-Cy5; type: binding
T1 construct: made in house
Method: Competitive fluorescence polarization experiments were performed according to previously reported methods ([65]). All experiments were performed in 25 mM HEPES, […], 1 mM TCEP, pH 7.4. A pre-complexed sample was prepared by incubating DDB1-CRBN (400 nM) with thalidomide–Cy5 conjugate (fig. S2A) (80 nM) at RT for 30 minutes with gentle shaking (220 rpm). […] Polarization values were measured on an Infinite M1000 Pro microplate reader (Tecan) following 1 hour of incubation at RT with gentle shaking. A total of three independent measurements were acquired and averaged per biological sample to generate the values shown in figure S2C. All mP values were normalized between 0 and 100 using the formula NormalizedmP=[(x−minimum)/[…]]∗100 , where ‘‘x’’ is the mP value of the sample and ‘‘minimum’’ and ‘‘maximum’’ are the minimum and maximum mP values, respectively, across all samples. KD values were estimated from computed Ki-values as previously described ([65]).

[1] = target: full-length CRBN (MG-PACE circuit, SD35) (Homo sapiens, UniProt Q96SW2); assay: Two-hybrid luciferase transcriptional activation in PMBN-permeabilized E. coli by compound-induced ternary complex of RR69–human full-length CRBN with ω–degron, about 1 h at 37 °C, four-parameter fit.; type: cell-based, E. coli S2060; conditions: n = 3
[2] = target: full-length CRBN (MG-PACE circuit, SD36) (Homo sapiens, UniProt Q96SW2); assay: as above; type: cell-based, E. coli S2060; conditions: n = 3
From the text: (§1) To evolve ZFs that engage PT-179-bound CRBN, we constructed an MG-PACE circuit using the CRBN•IMiD•ZF molecular glue complex. […] We translationally fused CRBN to the DNA-binding protein RR69 and fused SD0 to the RNAP ω-subunit, then measured transcriptional activation by luminescence (Fig. 2A).
(§2) Figure 2. […] (A) Full-length CRBN MG-PACE circuit. (B) CRBNCTD MG-PACE circuit. […] Values and error bars in (C), (E), and (H) represent the mean and standard deviation of three replicates, each normalized to a control treatment with DMSO only. Dashed vertical lines in (D), (F), and (G) represent neutral drift passages.
(§3) Chemically competent S2060 cells were co-transformed with accessory and complementary plasmids (Table S1).

[3] = target: full-length CRBN (MG-PACE circuit, SD31) (Homo sapiens, UniProt Q96SW2); assay: as above; type: cell-based, E. coli S2060; conditions: n = 3
From the text: as §1, §2, §3

[4] = target: T2, mmCRBN (MG-PACE circuit, SD56) (Mus musculus, UniProt Q8C7D2); assay: Two-hybrid luciferase transcriptional activation in PMBN-permeabilized E. coli by compound-induced ternary complex of mouse CRBN with evolved degron, about 1 h at 37 °C, four-parameter fit.; type: cell-based, E. coli S2060; conditions: n = 3
T2 construct: gene Crbn; mouse cereblon in mmCRBN MG-PACE circuit, partner SD56 (evolved ZF degron), in E. coli
From the text: (§4) Compared to human CRBN, mouse cereblon (mmCRBN) contains a V388I mutation that prevents IMiD-induced recruitment of ZF neosubstrates ([8]). The development of a potent and compact degron that is compatible with mmCRBN would facilitate studies that modulate target protein function in mouse systems. We hypothesized that MG-PACE could evolve degrons that overcome this difference in mmCRBN and respond to PT-179 in mouse cells. We constructed a mmCRBN MG-PACE circuit (Fig. 5A) and performed a total of 205 hours of PACE seeded with SD36-encoding phage (Fig. 5B).
(§5) Figure 5. MG-PACE evolves degrons that engage PT-179-bound mouse CRBN. (A) The mmCRBN MG-PACE circuit. Stringency is increased by expression of a competing ZF degron fused to maltose binding protein (MBP). (B) PACE in the mmCRBN MG-PACE circuit. (C) Mutations in evolved PT-179•mmCRBN-binding degrons. (D) PT-179-induced mmCRBN circuit activation (1 hr) by SD0 and evolved variants. […]
(§6) Chemically competent S2060 cells were co-transformed with accessory and complementary plasmids (Table S1). […] 96-well plates were then incubated in an Infinite M1000 Pro microplate reader (Tecan) at 37 °C with continuous shaking for ~1 hour prior to reading A600 nm and luminescence values. Raw luminescence values were then divided by the corresponding A600 nm values to normalize to cell density.

[5] = target: T3, mmCRBN (MG-PACE circuit, SD55) (Mus musculus, UniProt Q8C7D2); assay: as above; type: cell-based, E. coli S2060; conditions: n = 3
T3 construct: gene Crbn; mouse cereblon in mmCRBN MG-PACE circuit, partner SD55 (evolved ZF degron), in E. coli
From the text: as §4, §5, §6

FKBP12 and FRB = FKBP12 and FRB (Homo sapiens, UniProt P42345+P62942); assay: Rapamycin-sensitive MG-PACE circuit, luciferase activation; type: cell-based, E. coli; conditions: without PMBN
From the text: as §3

FRB = conditions: read-out: KD for FRB without FKBP12; cited from earlier work

## O=C1CCC(N2C(=O)c3cc(F)c(N4CCOCC4)cc3C2=O)C(=O)N1 (centres unmarked) [PK-1016]
degron-tagged eGFP; HEK293T cells
  PK-1016-induced degradation of SD40-eGFP (in words): poor activity; also recorded: poor degrader
DDB1•CRBN
  lower affinity for CRBN than PT-179: 2 fold
DDB1•CRBN; competition with thalidomide–Cy5, KD estimated from Ki
  pKd: 6.00

## O=C1CCC(N2C(=O)c3ccc(N4CCOCC4)cc3C2=O)C(=O)N1 (centres unmarked) [PT-179, PT-179 (thalidomide derivative with a morpholine at the phthalimide 5-position, without the 4-amino group)]
[1]
  pEC50: 6.25
[2]
  pEC50: 6.66
[3]
  pEC50: 5.49
[4]
  pEC50: 6.65
[5]
  pEC50: 5.95

## N#Cc1ccc(N2CCN(Cc3ccc(COc4cccc5c4CN([C@H]4CCC(=O)NC4=O)C5=O)cc3)CC2)c(F)c1 [mezigdomide, reference compound]
degron-tagged eGFP; fig. S11E
  degradation activity on SD40-tagged eGFP (in words): highly potent degradation activity

## CO[C@H]1C[C@@H]2CC[C@@H](C)[C@@](O)(O2)C(=O)C(=O)N2CCCC[C@H]2C(=O)O[C@H]([C@H](C)C[C@@H]2CC[C@@H](O)[C@H](OC)C2)CC(=O)[C@H](C)/C=C(\C)[C@@H](O)[C@@H](OC)C(=O)[C@H](C)C[C@H](C)/C=C/C=C/C=C/1C [rapamycin]
FKBP12 and FRB
  rapamycin concentrations at which luciferase expression was detected: > 1 µM
FRB
  pKd: 4.59
